Test results published in US7365099B2, “Animal body fat control” (Wisconsin Alumni Research Foundation, priority 2001, dated 2008).

Tests used:
fat tissue = settings: reported by Gowri et al. 2000; cited from earlier work
3T3-L1 adipocytes [1] = assay: Glycerol released from 3T3-L1 adipocytes; assay type: cell-based; settings: treated 20–24 hours
Method: (§1) Fat reduction by CLA is partly due to inhibition of lipoprotein lipase (LPL) in adipocytes, as has been previously shown using a 3T3-L1 adipocyte cell culture model. Using the same model, the effects on LPL of aspirin and NDGA, as compared to CLA, were tested. 3T3-L1 preadipocytes were cultured as described. Frost, S. C. and M. D. Lane, J. Biol. Chem. 260: 2646–2652(1985). Briefly, 3T3-L1 preadipocytes were grown to confluence at 37° C. in Dulbecco's Modified Eagle's Medium (DMEM) with 10% fetal bovine serum (FBS). At two days post-confluence (designated “day 0”) cell differentiation was induced with a mixture of methylisobutylxanthine (0.5 mM), dexamethasone (0.25 μM), and insulin (1 μg/ml) in DMEM containing 10% FBS. On “day 2” this medium was replaced with DMEM medium containing 10% FBS and insulin only. On “day 4” and thereafter the medium was DMEM plus 10% FBS only; this medium was subsequently replaced with fresh medium at 2 day intervals.
Cells were treated with other known lipoxygenase inhibitors. Cells were treated with testing compounds for 20–24 hours at day 6 or 7 post differentiation. Based on the ED50 of these inhibitors, various doses were first tested. In FIG. 5A, the concentration of SHA, CLA, ETYA, indomethacin, NDGA and AA861 were 1×10^−3 M, 1×10^−4 M, 1×10^−4 M, 1×10^−4 M, 1×10^−5 M and 1×10^−6 M, respectively. In FIG. 5B, the cells were treated with the test compounds at 1×10^−4 M. CLA was complexed with albumin and others were dissolved in ethanol. All dishes including control contained the same concentration of albumin (1×10^−4 M) and ethanol (final concentration of 0.1%). Numbers are mean±S.E. (in FIG. 5A, n=7–8, collected from 2 independent experiments, in FIG. 5B, n=11–12, collected from 3 independent experiments). […] Indomethacin blocks both cyclooxygenase and lipoxygenase, the two primary enzymes in the arachidonic acid metabolic cascade. […] When 100 μM of these were tested, the potency was AA861>NDGA>ETYA>Indomethacin>CLA. […]

[2] = Body weights of mice on NDGA/CLA diets (Experiment 2, FIG. 2); assay type: in vivo; settings: male ICR mice
Method: (§2) After a 5 day adaptation period, four-week-old weanling male ICR mice (Harlan Sprague-Dawley) were randomly separated into groups that were fed one of the treatment diets for 4 weeks. Mice were fed either a control diet (as in Experiment 1), or a diet supplemented with CLA (0.1%), NDGA (0.1% or 0.005%), or CLA (0.1%) with NDGA (0.1% or 0.005%). The lower level of NDGA was chosen based on the level used as an antioxidant in the food industry. Supplemental NDGA was added to diets at the expense of sugar. Diet was stored at −20° C. until use. Mice were housed individually in a windowless room with a 12-h light-dark cycle in strict accordance to guidelines established by the Research Animal Resources Center of University of Wisconsin-Madison. Diet and water, available ad libitum, were freshly provided three times per week.

[3] = tested on: lipoprotein lipase associated with 3T3-L1 adipocytes; assay: Heparin-releasable lipoprotein lipase (LPL) activity in 3T3-L1 adipocyte cultures; assay type: cell-based; settings: for LPL activity (in words): CLA 100 μM, aspirin 100 μM; for potency in reducing LPL (rank order, in words): FIG. 5B, 20–24 hours, all test compounds at 100 μM
Method: Using the same model, the effects on LPL of aspirin and NDGA, as compared to CLA, were tested. 3T3-L1 preadipocytes were cultured as described. […] Briefly, 3T3-L1 preadipocytes were grown to confluence at 37° C. in Dulbecco's Modified Eagle's Medium (DMEM) with 10% fetal bovine serum (FBS). At two days post-confluence (designated “day 0”) cell differentiation was induced with a mixture of methylisobutylxanthine (0.5 mM), dexamethasone (0.25 μM), and insulin (1 μg/ml) in DMEM containing 10% FBS. On “day 2” this medium was replaced with DMEM medium containing 10% FBS and insulin only. On “day 4” and thereafter the medium was DMEM plus 10% FBS only; this medium was subsequently replaced with fresh medium at 2 day intervals.
First, aspirin was tested along with PGE2, which is the final product of cyclooxygenase. Cells were treated with testing compounds for 4 hours before harvesting at day 6 or 7 post differentiation. The concentration of CLA, aspirin, and PGE2 were 1×10^−4 M, 1×10^−4 M, and 1×10^−6 M respectively. […] All dishes (including control) contained the same concentration of albumin (1×10^−4 M) and ethanol (final concentration of 0.1%).
Heparin-releasable lipoprotein lipase (LPL) activity (EC 3.1.1.34, 10 U heparin/ml media for 1 hr at 37° C.) was measured as described. Nilsson-Ehle, P. and M. C. […] Protein was determined using Bio-Rad DC Protein assay kit.
In a next set of cell culture experiments, shown in FIG. 4, cells were treated with testing compounds for 20–24 hours at day 7 post differentiation. […] CLA was complexed with albumin, and aspirin and NDGA were dissolved in ethanol. All dishes including control contained the same concentration of albumin (1×10^−4 M) and ethanol (final concentration of 0.05%). Numbers are mean±S.E. (n=7–8, collected from 2 independent experiments).
Cells were treated with other known lipoxygenase inhibitors. Cells were treated with testing compounds for 20–24 hours at day 6 or 7 post differentiation. Based on the ED50 of these inhibitors, various doses were first tested. In FIG. 5A, the concentration of SHA, CLA, ETYA, indomethacin, NDGA and AA861 were 1×10^−3 M, 1×10^−4 M, 1×10^−4 M, 1×10^−4 M, 1×10^−5 M and 1×10^−6 M, respectively. In FIG. 5B, the cells were treated with the test compounds at 1×10^−4 M. CLA was complexed with albumin and others were dissolved in ethanol. All dishes including control contained the same concentration of albumin (1×10^−4 M) and ethanol (final concentration of 0.1%). Numbers are mean±S.E. (in FIG. 5A, n=7–8, collected from 2 independent experiments, in FIG. 5B, n=11–12, collected from 3 independent experiments). […] Indomethacin blocks both cyclooxygenase and lipoxygenase, the two primary enzymes in the arachidonic acid metabolic cascade.

[4] = Food intake of mice on NDGA/CLA diets (Experiment 2); assay type: in vivo; settings: male ICR mice; for food intake, Total / food intake, Week 1 / food intake, Week 4: mean±S.E., N=5–6
Method: as §2

ICR mice [5] = assay: Body composition analysis of mice on NDGA/CLA diets (Experiment 2); assay type: in vivo; settings: male ICR mice; for % Ash / ECW (empty carcass weight): mean±S.E., N=5–6; for body composition versus control (in words): 4 weeks
Method: For body composition analyses, animals were sacrificed, gut contents were removed (to obtain empty carcass weight, “ECW”), and the carcasses frozen at −20° C. Frozen carcasses were chopped, and freeze dried to determine water content. Each dried carcass was ground to give a homogeneous sample before further analysis. Total nitrogen was analyzed by the Kjeldahl method. Helrich, K., Official Methods of Analysis, 15th ed.: 935–937(1990). Carcass fat content was measured by extraction with diethyl ether overnight using a Soxhlet apparatus. Total ash content was determined by incineration (500–600° C., overnight).
as §2

[6] = Body weights of mice on aspirin/CLA diets (Experiment 1, FIG. 1); assay type: in vivo; settings: female ICR mice, 0.5% CLA and/or 0.03% aspirin
From the text: After a 5 day adaptation period, four-week-old weanling female ICR mice (Harlan Sprague-Dawley) were randomly separated into groups that were fed one of the treatment diets for 4 weeks. Mice were fed either a control diet, or a diet supplemented with aspirin alone (0.03%), 0.5% CLA alone, or CLA with additional aspirin (0.006% [“Asp1”] or 0.03% [“Asp2”]). The control diet was semi-purified TD94060 diet, 99% basal mix from Harlan Teklad, Madison, Wis. that contained (ingredient, g/kg): sucrose, 476; casein, “vitamin-free” test, 210; corn starch, 150; DL-methionine, 3; corn oil 55; cellulose, 50; mineral mix, AIN-76, 35; vitamin mix, AIV-76A, 10; calcium carbonate, 4; choline bitartrate, 2; and ethoxyquin, 0.1. The aspirin doses reflect an average human dose (0.03%) or a recommended dose for preventing cardiovascular disease (0.006%). Supplemental CLA was added to diets at the expense of corn oil. Diet was stored at −20° C. until use. Mice were housed individually in a windowless room with a 12-h light-dark cycle in strict accordance to guidelines established by the Research Animal Resources Center of University of Wisconsin-Madison. Diet and water, available ad libitum, were freshly provided three times per week.

ICR mice [7] = assay: Body composition analysis of mice on aspirin/CLA diets (Experiment 1); assay type: in vivo; settings: female ICR mice, 4 weeks
From the text: After a 5 day adaptation period, four-week-old weanling female ICR mice (Harlan Sprague-Dawley) were randomly separated into groups that were fed one of the treatment diets for 4 weeks. Mice were fed either a control diet, or a diet supplemented with aspirin alone (0.03%), 0.5% CLA alone, or CLA with additional aspirin (0.006% [“Asp1”] or 0.03% [“Asp2”]). The control diet was semi-purified TD94060 diet, 99% basal mix from Harlan Teklad, Madison, Wis. that contained (ingredient, g/kg): sucrose, 476; casein, “vitamin-free” test, 210; corn starch, 150; DL-methionine, 3; corn oil 55; cellulose, 50; mineral mix, AIN-76, 35; vitamin mix, AIV-76A, 10; calcium carbonate, 4; choline bitartrate, 2; and ethoxyquin, 0.1. The aspirin doses reflect an average human dose (0.03%) or a recommended dose for preventing cardiovascular disease (0.006%). Supplemental CLA was added to diets at the expense of corn oil. Diet was stored at −20° C. until use. […]
For body composition analyses, animals were sacrificed, gut contents were removed (to obtain empty carcass weight, “ECW”), and the carcasses frozen at −20° C. […] Total nitrogen was analyzed by the Kjeldahl method. […] Carcass fat content was measured by extraction with diethyl ether overnight using a Soxhlet apparatus. Total ash content was determined by incineration (500–600° C., overnight).

3T3-L1 adipocytes [8] = assay: Cellular triacylglyceride (TG) in 3T3-L1 adipocytes; assay type: cell-based; settings: treated 20–24 hours
Method: as §1
Cells were treated with other known lipoxygenase inhibitors. Cells were treated with testing compounds for 20–24 hours at day 6 or 7 post differentiation. Based on the ED50 of these inhibitors, various doses were first tested. In FIG. 5A, the concentration of SHA, CLA, ETYA, indomethacin, NDGA and AA861 were 1×10^−3 M, 1×10^−4 M, 1×10^−4 M, 1×10^−4 M, 1×10^−5 M and 1×10^−6 M, respectively. […]

[9] = 0.005% NDGA, with or without 0.1% CLA
[10] = FIG. 4, treated 20–24 hours at day 7 post differentiation, NDGA 50 μM
[11] = 4 weeks diet with 0.005% NDGA, with or without 0.1% CLA
[12] = 4 weeks diet with 0.1% CLA and/or 0.1% NDGA
[13] = diet with 0.005% NDGA, with or without 0.1% CLA
[14] = diet with 0.1% CLA and/or 0.1% NDGA
[15] = FIG. 3, treated 4 hours, day 6 or 7 post differentiation, PGE2 1 μM

| Compound | glycerol released from the cell (in words) (3T3-L1 adipocytes [1]) | body weights (in words) ([2]; 0.1% CLA and/or 0.1% NDGA) | LPL activity (in words) [3, 10] | potency in reducing LPL (rank order, in words) [3] | food intake, Total [4, 12] [g/mouse] | food intake, Week 1 [4, 14] [g/mouse] | food intake, Week 4 [4, 14] [g/mouse] | % Ash (ICR mice [5]; [12]) [%] | ECW (empty carcass weight) (ICR mice [5]; [12]) [g] | body composition versus control (in words) (ICR mice [5]; 0.1% CLA and/or 0.1% NDGA) | LPL activity (in words) [3, 15] | body weights, weeks 0 through 3 (in words) [6] | further results |
| --- | --- | --- | --- | --- | --- | --- | --- | --- | --- | --- | --- | --- | --- |
| CC(Cc1ccc(O)c(O)c1)C(C)Cc1ccc(O)c(O)c1 (centres unmarked) [NDGA, nordihydroguaiaretic acid] | reduced the glycerol release | no difference in body weights | significantly reduced LPL activity | AA861>NDGA>ETYA>Indomethacin>CLA | 137.9 ± 1.9 | 35.2 ± 0.7 | 33.8 ± 1.0 | 3.43 ± 0.09 | 31.9 ± 1.3 | reduced fat (p<0.209) and increased water and protein | – | – | lipolysis in fat tissue (in words) (fat tissue): reduce lipolysis; body weights (in words) [2, 9]: no difference in body weights; food intake, Total [4, 11]: 136.3 ± 1.3 g/mouse; food intake, Week 1 [4, 13]: 33.8 ± 0.6 g/mouse; food intake, Week 4 [4, 13]: 34.0 ± 0.4 g/mouse; % Ash (ICR mice [5]; [11]): 3.29 ± 0.12%; ECW (empty carcass weight) (ICR mice [5]; [11]): 32.2 ± 0.6 g; body composition versus control (in words) (ICR mice [5]; [9]): no effect on body composition |
| CCCCC[C@H](O)/C=C/[C@H]1[C@H](O)CC(=O)[C@@H]1C/C=C\CCCC(=O)O [PGE2, Prostaglandin E2] | – | – | – | – | – | – | – | – | – | – | no effect on LPL | – | – |
| CC(=O)Oc1ccccc1C(=O)O [aspirin, Acetylsalicylic acid] | – | – | no effect | – | – | – | – | – | – | – | no effect on LPL | no difference in body weights | effect of added aspirin on CLA's effects on body composition (in words) (ICR mice [7]; 0.006% or 0.03% aspirin with 0.5% CLA): did not change any of CLA's effects; body composition versus control (in words) (ICR mice [7]; 0.5% CLA with or without aspirin, aspirin alone 0.03%): no effect on body composition |
| Conjugated linoleic acid [CLA] | increased the glycerol released | no difference in body weights | significantly reduced LPL activity | AA861>NDGA>ETYA>Indomethacin>CLA | 136.6 ± 1.2 | 34.5 ± 0.3 | 32.4 ± 0.7 | 3.49 ± 0.07 | 32.0 ± 0.9 | reduced fat (p<0.197) and increased water and protein | significantly decreased LPL activity | no difference in body weights | food intake compared to control (in words) ([4]; 0.1% CLA, with or without 0.1% NDGA): reduced food intake only at week 3; amount of cellular triacylglyceride (TG) (in words) (3T3-L1 adipocytes [8]): reduced |
